The values below come from ChEMBL document CHEMBL5257049, “Interconvertible Pyridone Alkaloids from the Marine-Derived Fungus Penicillium oxalicum QDU1” (J Nat Prod, 2023).

A value given as a limit tells only on which side of the number the result lay.

The test system of the assay is RAW264.7. Kind of assay: Antiinflammatory activity in mouse RAW264.7 cells assessed as inhibition of LPS-stimulated NO production preincubated for 3 hrs followed by LPS stimulation and measured after 24 hrs by Griess reagent based assay. The format is functional, cell-based.
As usually defined, the IC50 is the point on the concentration scale where inhibition reaches its midpoint. In the case of `CC[C@H](C)/C=C(C)/C=C/[C@H]1Oc2c(-c3ccc(O)cc3)c[nH]c(=O)c2[C@H](O)[C@H]1C`, the IC50 worked out at 17 µM. With `CO[C@@H]1c2c(c(-c3ccc(O)cc3)c[nH]c2=O)O[C@@H](/C=C/C(C)=C/[C@H](C)[C@@H](C)O)[C@@H]1C` the figure was 15 µM.

Regarding `CC[C@H](C)/C=C(C)/C=C/[C@H]1Oc2c(-c3ccc(O)cc3)c[nH]c(=O)c2[C@H](OC)[C@@H]1C`, the IC50 is over 20 µM.

On to `CO[C@@H]1c2c(c(-c3ccc(O)cc3)c[nH]c2=O)O[C@@H](/C=C/C(C)=C/[C@H](C)[C@H](C)O)[C@@H]1C`, for which the IC50 is 18 µM. The result for `CC[C@H](C)/C=C(C)/C=C/[C@H]1Oc2c(-c3ccc(O)cc3)c[nH]c(=O)c2[C@H](O)[C@@H]1C` reads over 20 µM; that for `CC(/C=C/C=C(C)/C(O)=C1/C(=O)N[C@@H]([C@@H](O)c2ccc(O)cc2)C1=O)=C\[C@H](C)[C@@H](C)O`, over 20 µM; that for `COc1ccc2c(c1)c(CC(=O)O)c(C)n2C(=O)c1ccc(Cl)cc1` [INDOMETHACIN], 0.62 µM. Regarding `CC(/C=C/C=C(C)/C(O)=C1/C(=O)N/C(=C\c2ccc(O)cc2)C1=O)=C\[C@H](C)[C@@H](C)O`, the IC50 was found to be 14 µM. Consider `CC[C@H](C)/C=C(C)/C=C/[C@H]1Oc2c(-c3ccc(O)cc3)c[nH]c(=O)c2[C@@H](O)[C@@H]1C`, for which the IC50 is 19 µM.

With `CC(/C=C/C=C(C)/C(O)=C1/C(=O)N[C@H]([C@@H](O)c2ccc(O)cc2)C1=O)=C\[C@H](C)[C@@H](C)O`, the IC50 was over 20 µM. `CO[C@@H]1c2c(c(-c3ccc(O)cc3)c[nH]c2=O)O[C@H](/C=C/C(C)=C/[C@H](C)[C@@H](C)O)[C@@H]1C`: the IC50 was 17 µM. In the case of `CC[C@H](C)/C=C(C)/C=C/[C@H]1Oc2c(-c3ccc(O)cc3)c[nH]c(=O)c2[C@H](OC)[C@H]1C`, the IC50 was found to be 9.2 µM. For `CC(/C=C/[C@@H]1Oc2c(-c3ccc(O)cc3)c[nH]c(=O)c2[C@@H](O)[C@H]1C)=C\[C@H](C)[C@H](C)O`, the IC50 is over 20 µM. As for `CC(/C=C/[C@@H]1Oc2c(-c3ccc(O)cc3)c[nH]c(=O)c2[C@H](O)[C@H]1C)=C\[C@H](C)[C@@H](C)O`, the IC50 was over 20 µM. With `CC(/C=C/[C@@H]1Oc2c(-c3ccc(O)cc3)c[nH]c(=O)c2[C@@H](O)[C@H]1C)=C\[C@H](C)[C@@H](C)O` the figure was over 20 µM.
